Results reported in patent publication US10322995B2, “Substituted cyano cycloalkyl penta-2,4-dienes, cyano cycloalkyl pent-2-en-4-ynes, cyano heterocyclyl penta-2,4-dienes and cyano heterocyclyl pent-2-en-4-ynes as active substances against abiotic plant stress” (BAYER CROPSCIENCE AKTIENGESELLSCHAFT, priority 2014, dated 2019).

Assays:
Set-up in all cases: key: 0: no positive effect; 10: slight positive effect; 20: clear positive effect; 30: strong positive effect
[1] = system: Triticum aestivum (TRZAS); test: In vivo analyses Part B: drought stress, appearance vs stressed control plants in categories (TRZAS); details: spray application 250 g/ha, category vs stressed control plants, 2-3 pots
Description: Seeds of monocotyledonous and dicotyledonous crop plants were sown in sandy loam in plastic pots, covered with soil or sand and cultivated in a greenhouse under good growth conditions. The test plants were treated at the early leaf stage (BBCH10-BBCH13). To assure uniform water supply before commencement of stress, the potted plants were supplied with water by dam irrigation prior to substance application. The inventive compounds, formulated in the form of wettable powders (WP), were sprayed onto the green parts of the plants as an aqueous suspension at an equivalent water application rate of 600 I/ha with addition of 0.2% wetting agent (e.g. agrotin). Substance application was followed immediately by stress treatment of the plants. Drought stress was induced by gradual drying out under the following conditions: “Day”: 14 hours with illumination at 26-30° C. “Night”: 10 hours without illumination at 18-20° C. The duration of the respective stress phases was guided mainly by the condition of the stressed control plants. It was ended (by re-irrigating and transfer to a greenhouse with good growth conditions) as soon as irreversible damage was observed on the stressed control plants. The end of the stress phase was followed by an about 4-7-day recovery phase, during which the plants were once again kept under good growth conditions in a greenhouse. The duration of the recovery phase was guided mainly by when the trial plants had attained a state which enabled visual scoring of potential effects, and was therefore variable. Once this juncture had been reached, the appearance of the plants treated with test substances was recorded in comparison to the stressed control plants by the following categories: [table] In order to rule out any influence on the effects observed by any fungicidal or insecticidal action of the test compounds, it was additionally ensured that the tests proceeded without fungal infection or insect infestation. For each substance and dosage, 2-3 pots were treated and evaluated. TRZAS=Triticum aestivum

Zea mays (ZEAMX) = test: In vivo analyses Part B: drought stress, appearance vs stressed control plants in categories (ZEAMX); details: spray application 25 g/ha, category vs stressed control plants, 2-3 pots
Description: Seeds of monocotyledonous and dicotyledonous crop plants were sown in sandy loam in plastic pots, covered with soil or sand and cultivated in a greenhouse under good growth conditions. The test plants were treated at the early leaf stage (BBCH10-BBCH13). To assure uniform water supply before commencement of stress, the potted plants were supplied with water by dam irrigation prior to substance application. The inventive compounds, formulated in the form of wettable powders (WP), were sprayed onto the green parts of the plants as an aqueous suspension at an equivalent water application rate of 600 I/ha with addition of 0.2% wetting agent (e.g. agrotin). Substance application was followed immediately by stress treatment of the plants. Drought stress was induced by gradual drying out under the following conditions: “Day”: 14 hours with illumination at 26-30° C. “Night”: 10 hours without illumination at 18-20° C. The duration of the respective stress phases was guided mainly by the condition of the stressed control plants. It was ended (by re-irrigating and transfer to a greenhouse with good growth conditions) as soon as irreversible damage was observed on the stressed control plants. The end of the stress phase was followed by an about 4-7-day recovery phase, during which the plants were once again kept under good growth conditions in a greenhouse. The duration of the recovery phase was guided mainly by when the trial plants had attained a state which enabled visual scoring of potential effects, and was therefore variable. Once this juncture had been reached, the appearance of the plants treated with test substances was recorded in comparison to the stressed control plants by the following categories: [table] In order to rule out any influence on the effects observed by any fungicidal or insecticidal action of the test compounds, it was additionally ensured that the tests proceeded without fungal infection or insect infestation. For each substance and dosage, 2-3 pots were treated and evaluated. ZEAMX=Zea mays

Brassica napus (BRSNS) = test: In vivo analyses Part B: drought stress, appearance vs stressed control plants in categories (BRSNS); details: spray application 250 g/ha, category vs stressed control plants, 2-3 pots
Description: Seeds of monocotyledonous and dicotyledonous crop plants were sown in sandy loam in plastic pots, covered with soil or sand and cultivated in a greenhouse under good growth conditions. The test plants were treated at the early leaf stage (BBCH10-BBCH13). To assure uniform water supply before commencement of stress, the potted plants were supplied with water by dam irrigation prior to substance application. The inventive compounds, formulated in the form of wettable powders (WP), were sprayed onto the green parts of the plants as an aqueous suspension at an equivalent water application rate of 600 I/ha with addition of 0.2% wetting agent (e.g. agrotin). Substance application was followed immediately by stress treatment of the plants. Drought stress was induced by gradual drying out under the following conditions: “Day”: 14 hours with illumination at 26-30° C. “Night”: 10 hours without illumination at 18-20° C. The duration of the respective stress phases was guided mainly by the condition of the stressed control plants. It was ended (by re-irrigating and transfer to a greenhouse with good growth conditions) as soon as irreversible damage was observed on the stressed control plants. The end of the stress phase was followed by an about 4-7-day recovery phase, during which the plants were once again kept under good growth conditions in a greenhouse. The duration of the recovery phase was guided mainly by when the trial plants had attained a state which enabled visual scoring of potential effects, and was therefore variable. Once this juncture had been reached, the appearance of the plants treated with test substances was recorded in comparison to the stressed control plants by the following categories: [table] In order to rule out any influence on the effects observed by any fungicidal or insecticidal action of the test compounds, it was additionally ensured that the tests proceeded without fungal infection or insect infestation. For each substance and dosage, 2-3 pots were treated and evaluated. BRSNS=Brassica napus

SMILES | Effect (TRZAS) [1] | Effect (ZEAMX) (Zea mays (ZEAMX)) | Effect (BRSNS) (Brassica napus (BRSNS))
CCOC(=O)/C=C(\C#CC(O)(C(C)C)C1(C#N)CC1)CC (stereo not shown) [I.1-103] | 10-20 | 10-20 | 30
COC(=O)/C=C(/C)C#CC(O)(C(C)C)C1(C#N)CC1 (stereo not shown) [I.1-135] | 30 | – | 30
CC/C(C#CC(O)(c1ccccc1)C1(C#N)CC1)=C/C(=O)OC (stereo not shown) [I.1-202] | 20 | 10-20 | 20
CCCOC(=O)/C=C(\C#CC(O)(C(C)C)C1(C#N)CC1)CC (stereo not shown) [I.1-605] | 20 | – | 20
CCCOC(=O)/C=C(\C#CC(O)(c1ccccc1)C1(C#N)CC1)CC (stereo not shown) [I.1-609] | 10 | 20 | 10-20
